Data as given in patent publication US20220031641A1, “COMPOSITIONS AND METHODS FOR TREATING AND PREVENTING COGNITIVE DYSFUNCTION” (Pharmatrophix, Inc., priority 2019, published 2022).
Where two headings read alike, the source gives them in different places.

What was measured:
P6-8 mouse OPCs [1] = assay: OPC proliferation index (EdU+/PDGFRa+) in cultures of murine OPCs; assay type: cell-based; conditions: 24-hour exposure; 0-1000 nM concentration range
Text: (§1) Cells were fixed at day 100 following induction and the percent of DAPI+ cells expressing the OPC marker PDGFRa was quantified. […] Green=PDGFRa, white=DAPI. Scale bar=10 μm. […] Cells were fixed at day 100 following induction and the percent of DAPI+ cells expressing the mature oligodendrocyte marker MBP was quantified. […] Red=MBP, white=DAPI. Scale bar=10 μm. […] White-dashed circle=lesioned area in the corpus callosum. Scale bar=20 μm. […] FIG. 5K-FIG. 5M show representative confocal images of proliferating OPCs as shown by EdU incorporation into PDGFRa+ cells in mouse OPC cultures treated with vehicle control (FIG. 5K), 50 nM BDNF (FIG. 5L) and 100 nM LM22A-4 (FIG. 5M).
(§2) Thus, to therapeutically manipulate BDNF-TrkB signaling to promote oligodendrogenesis, we tested a small molecule TrkB partial agonist, LM22A-4. […] To determine if LM22A-4 could promote OPC proliferation and differentiation in a manner similar to BDNF, we compared the effects of recombinant BDNF, LM22A-4 or vehicle control in cultures of murine OPCs.

TrkB receptor = TrkB receptor (Homo sapiens, UniProt Q16620); conditions: previously shown; cited from earlier work
Chain of TrkB receptor (Q16620 32-822): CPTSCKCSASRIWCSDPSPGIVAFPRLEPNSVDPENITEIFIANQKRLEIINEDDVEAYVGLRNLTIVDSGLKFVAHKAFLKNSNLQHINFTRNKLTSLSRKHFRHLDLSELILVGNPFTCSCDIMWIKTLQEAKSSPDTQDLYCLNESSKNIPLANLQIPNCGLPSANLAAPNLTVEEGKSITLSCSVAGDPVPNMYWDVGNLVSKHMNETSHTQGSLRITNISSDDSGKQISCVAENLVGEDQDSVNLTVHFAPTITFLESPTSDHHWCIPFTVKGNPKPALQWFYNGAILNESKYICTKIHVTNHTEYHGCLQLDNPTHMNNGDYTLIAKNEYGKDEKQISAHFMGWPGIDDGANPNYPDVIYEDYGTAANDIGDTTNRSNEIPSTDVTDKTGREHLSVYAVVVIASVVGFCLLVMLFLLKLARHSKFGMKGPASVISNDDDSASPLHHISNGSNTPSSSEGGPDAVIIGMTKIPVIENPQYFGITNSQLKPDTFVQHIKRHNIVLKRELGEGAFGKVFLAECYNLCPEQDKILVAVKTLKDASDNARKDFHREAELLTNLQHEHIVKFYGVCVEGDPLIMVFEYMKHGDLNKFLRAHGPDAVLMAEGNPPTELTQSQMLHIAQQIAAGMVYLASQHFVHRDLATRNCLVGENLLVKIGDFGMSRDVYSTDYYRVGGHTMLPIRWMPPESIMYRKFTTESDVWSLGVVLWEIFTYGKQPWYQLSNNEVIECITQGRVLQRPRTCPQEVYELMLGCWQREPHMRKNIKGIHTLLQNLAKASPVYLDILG

[2] = tested on: lysolecithin-induced demyelination in the corpus callosum; assay: Lysolecithin demyelination model, OPC proliferation and oligodendrogenesis in corpus callosum lesion; assay type: in vivo, mouse
Text: as §1
To investigate the effects of LM22A-4 treatment on OPC proliferation and oligodendrogenesis in vivo, we next examined mice treated with either LM22A-4 or vehicle control in a well-established demyelination model. Stereotaxic injection of lysolecithin into white matter regions causes a focal, toxic, demyelinating injury; this leads to microglial activation and demyelination, followed by OPC proliferation, recruitment and migration into the lesion area. […]

human iPSC-derived OPCs = assay: In vitro oligodendrogenesis in human iPSC-derived OPCs (PDGFRa+, MBP+ cells); assay type: cell-based; conditions: day 25-35 of OPC induction; 20 ng/ml BDNF or 1000 nM LM22A-4; fixed at day 100
Text: as §1, §2

P6-8 mouse OPCs [3] = assay: Oligodendroglial differentiation (CC1+ cells) in murine OPC cultures; assay type: cell-based; conditions: seven-day exposure; BDNF 50 nM, LM22A-4 100 nM daily
Text: as §1, §2

[4] = tested on: myelinated axons in the cingulum of the corpus callosum; assay type: in vivo, mouse; conditions: for g-ratio: LM22A-4 50 mg/kg i.p. daily P38-P62, analysed P63
Procedure: (§3) A single point indicates the g-ratio for a single axon. Approximately 100 axons were quantified and the mean g-ratio determined for each mouse. P-values (indicated on plots) were determined by a Student's t-test, comparing the mean g-ratio on a per mouse basis between groups. […] At P63, the Novel Object Recognition Test was performed in mice previously exposed to MTX chemotherapy or PBS vehicle control and later treated with LM22A-4 or vehicle control. Percent preference for novel object was measured as the percent time spent with novel object over the total time spent with either object (n=4 mice in each group). Statistical significance was determined by a one-sample t-test, where the average percent preference for the novel object for each group was measured against a hypothetical value of 50% chance an animal would interact with either object. […] Scale bars=2 μm. FIG. 6F-FIG. 6G show myelin microstructure data shown in FIG. 6C are shown as scatterplots of g-ratio as a function of axon caliber. […] LM22A-4 increases myelin sheath thickness in control mice. […] LM22A-4 rescues myelin deficits in mice exposed to juvenile MTX in small caliber axons (<0.5 μm; n=7 mice, p=0.005), medium caliber axons (0.5 μm-1.0 μm; n=7, p=0.006) and large caliber axons (>1.0 μm; n=7 mice; p=0.033) compared to mice exposed to MTX but treated with vehicle control. Data in FIG. 6A-FIG. 6E shown as mean±SEM, ns=p>0.05, * p<0.05, ** p<0.01 *** p<0.001 as determined by Student's t-test.
(§4) The chemotherapy-induced neurological syndrome is characterized by decreased attention and memory function and this is recapitulated in the MTX mouse model used here. To test the hypothesis that BDNF to TrkB signaling could promote myelination and improve cognitive dysfunction after chemotherapy exposure, mice were subjected to the above MTX chemotherapy protocol, then treated systemically with the TrkB partial agonist LM22A-4 (50 mg/kg i.p. daily, P38-P62, FIG. 6A) or vehicle control, and analyzed at 24 hours after the final injection (P63) for changes in myelin microstructure and behavioral performance in the novel object recognition test.
(§5) Myelin microstructure in the cingulum of the corpus callosum was examined by transmission electron microscopy. […] The myelin microstructural effects of LM22A-4 thus mimic activity-regulated changes in myelin microstructure, but would lack the circuit-specificity of the activity-regulated response. To test the influence of LM22A-4 on a behavioral measure of attention and memory function, the novel object recognition test was used. After brief introduction to two identical objects, mice are then exposed to one familiar object as well as a completely novel object after a time delay of 5-minutes. […] Treatment with LM22A-4 from P38-P62 rescues performance in the novel object recognition test in MTX treated mice as these mice spend a significant percentage of their time interacting with the novel object over the familiar object (MTX+vehicle: 47.94%±3.50%, p=0.5968 over 50%; PBS+vehicle: 63.37%±4.72%, p=0.0219 over 50%; MTX+LM22A-4: 62.81%±3.31%, p=0.0305 over 50%; PBS+LM22A-4: 68.93%±6.34%, p=0.0317 over 50%; FIG. 6E).

[5] = assay type: in vivo, mouse; conditions: LM22A-4 50 mg/kg i.p. daily P38-P62, tested P63
Procedure: as §3, §4, §5

BDNF protein = conditions: mouse, in vivo
[6] = tested on: OPCs in the corpus callosum; conditions: MTX at P21, 28, 35; one month (P63) and 6 months (P203) after cessation; cited from earlier work
[7] = BDNF protein; cited from earlier work

Molecule: O=C(NCCO)c1cc(C(=O)NCCO)cc(C(=O)NCCO)c1 [LM22A-4, N,N′,N″-tris(2-hydroxyethyl)-1,3,5-benzenetricarboxamide]
- proliferative index of OPCs (fraction of total cells in S phase, co-localization of PDGFRa with EdU) (P6-8 mouse OPCs [1]): similarly increased the proliferative index of OPCs in the low nanomolar range and in a dose-dependent manner
- TrkB receptor activation (TrkB receptor): activate the TrkB receptor specifically
- density of EdU+/PDGFRa+ proliferating OPCs in lesioned area ([2]; 50 mg/kg i.p. for one week from day 7 after lysolecithin injection): 1132±67.1 cells/mm3
- density of EdU+/CC1+ newly generated mature oligodendrocytes in lesioned area ([2]; 50 mg/kg, day 7 to 21 following lysolecithin injury): 764.8±141.6 cells/mm3
- in vitro oligodendrogenesis in human oligodendroglial lineage cells (human iPSC-derived OPCs): similarly promote in vitro oligodendrogenesis
- oligodendroglial differentiation, cells expressing CC1 relative to vehicle control (P6-8 mouse OPCs [3]): similarly promoted oligodendroglial differentiation
- g-ratio ([4]; MTX-exposed mice (100 mg/kg i.p. P21, 28, 35)): 0.733±0.017
- myelin thickness by axon caliber ([4]; MTX-treated mice, small (<0.5 μm), medium (0.5-1.0 μm), large (>1.0 μm) caliber axons): increased myelin thickness in small, medium and large caliber axons
- g-ratio ([4]; PBS-exposed mice): 0.713±0.010
- percent preference for novel object ([5]; MTX-exposed mice): 62.81%±3.31%
- percent preference for novel object ([5]; PBS-exposed mice): 68.93%±6.34%

Molecule: CN(Cc1cnc2nc(N)nc(N)c2n1)c1ccc(C(=O)N[C@@H](CCC(=O)O)C(=O)O)cc1 [MTX, methotrexate]
- corpus callosum BDNF protein levels (BDNF protein): 5350 ± 1740 pg/mL
- decrease in corpus callosum BDNF protein levels compared to PBS vehicle controls (BDNF protein): more than three-fold decrease
- OPCs in the corpus callosum after MTX exposure [6]: lasting reduction of OPCs in the corpus callosum

Molecule: BDNF: brain-derived neurotrophic factor, recombinant protein, ligand of TrkB
- proliferative index of OPCs (fraction of total cells in S phase, co-localization of PDGFRa with EdU) (P6-8 mouse OPCs [1]): increased the proliferative index
- in vitro oligodendrogenesis in human oligodendroglial lineage cells (human iPSC-derived OPCs): similarly promote in vitro oligodendrogenesis
- oligodendroglial differentiation, cells expressing CC1 relative to vehicle control (P6-8 mouse OPCs [3]): similarly promoted oligodendroglial differentiation

B1: BDNF: brain-derived neurotrophic factor, recombinant protein, ligand of TrkB (protein, UniProt P23560 19-247, looked up)
Neurotrophic factor BDNF …: APMKEANIRGQGGLAYPGVRTHGTLESVNGPKAGSRGLTSLADTFEHVIEELLDEDQKVRPNEENNKDADLYTSRVMLSSQVPLEPPLLFLLEEYKNYLDAANMSMRVRRHSDPARRGELSVCDSISEWVTAADKKTAVDMSGGTVTVLEKVPVSKGQLKQYFYETKCNPMGYTKEGCRGIDKRHWNSQCRTTQSYVRALTMDSKKRIGWRFIRIDTSCVCTLTIKRGR
- blood-brain-barrier penetration [7]: poor blood-brain-barrier penetration
- plasma half-life [7]: short plasma half-life
